# Laboratory results reported in patent publication US20250290117A1, “MOLECULAR PHENOTYPIC ANTIMICROBIAL SUSCEPTIBILITY TESTING” (priority 2024, published 2025).
# Assays:
# [1] = system: pathogen of the specimen; assay: Traditional culture-based antimicrobial susceptibility test (comparison of Table 7); format: cell-based; settings: E. coli isolate 1189
# Experimental: Table 7 illustrates the results of an example antimicrobial agent susceptibility test of the current application versus a traditional culture-based antimicrobial agent susceptibility test at multiple incubation timepoints, in accordance with one or more embodiments of the disclosure. These specimens were tested with direct PCR (e.g., no extraction DNA purification step prior to PCR). […] Result Reporting to Healthcare Providers. The results from the antimicrobial exposure are reported to the ordering healthcare provider. This information can be utilized by the healthcare provider when selecting an antimicrobial regimen for their individual patient based on these individual specimen results and patient specific factors. […] The current standard of care for antimicrobial susceptibility testing involves the growth, isolation, and exposure of pathogens to antimicrobials. This traditional culture and sensitivity process can take multiple days to obtain results, limiting the ability of healthcare providers to receive timely results to make actionable changes in patient care or management. Healthcare providers desire a method to obtain antimicrobial susceptibility results with quicker turn-around-time. This application discloses a molecular-based phenotypic antimicrobial susceptibility method which involves pathogen exposure to a panel of antimicrobial agents at their specified minimum inhibitory concentration breakpoints for sensitivity. This method allows for more timely antimicrobial susceptibility results.
# [2] = system: Acinetobacter baumannii; assay: Molecular phenotypic antimicrobial susceptibility test (extraction/DNA purification prior to PCR); format: cell-based
# Experimental: Detection of Molecular Phenotypic Antimicrobial Susceptibility. Disclosed herein are the methods for the detection of phenotypic antimicrobial susceptibility via molecular methods. The present invention describes how a specimen 100 with a known microbial load is incubated and then exposed to a panel of antimicrobial agents to determine sensitivity (prevention of growth) or resistance (allowance of growth) to the specific antimicrobial agents tested utilizing molecular methods. Sample Collection. Specimens 100 are collected from patients using sterile collection processes that are employed in routine clinical care. Specimens are transported to the testing facility in boric acid preservative. […] The specimens 100 are put through a pathogen identification process using PCR technology (e.g., using the first sample 104). The process for pathogen isolation includes steps of harvesting the pathogen (e.g., via centrifugation), isolating pathogen DNA via a DNA isolation and/or purification kit, and performing PCR on the pathogen DNA via PCR components (e.g., primers, enzymes, buffers) as would be known to the skilled artisan. Simultaneously, an additional aliquot of the same specimen (e.g., the second sample 108) is placed with liquid culture media and incubated for 4-6 hours. This aliquot is used for antimicrobial susceptibility testing if indicated based on the pathogen detection results. […] Specimens 100 with lower pathogen loads could also be utilized in the antibiotic susceptibility phase of testing with or without a longer incubation period. […] Antimicrobial solutions are prepared at known concentrations. The specific antimicrobials and their concentrations are selected based on the pathogen of interest and the described antimicrobial resistance breakpoints for that specimen pathogen and antimicrobial combination. These antimicrobials have been selected based on those commonly utilized by healthcare providers in routine clinical care for the specific type of suspected infection. The number and types of antimicrobials utilized can be customized based on the infection source, pathogen detected, patient-specific factors such as allergies or other health conditions (e.g., chronic kidney disease or concurrent medication use), or healthcare provider preferences such as antimicrobial availability or cost. The antimicrobial solutions are prepared in liquid culture media (such as Muller Hinton Broth) to achieve the desired antimicrobial concentration and are then stored at −80° C. until use. For a given specimen, each antimicrobial is tested at a single or multiple antimicrobial concentration(s) which is its established breakpoints for sensitivity. The antimicrobial solutions are prepared and plated out for each specific pathogen. This allows ease of use on the day of testing after defrosting the plate 112. Table 1, which illustrates the results of molecular phenotypic antimicrobial susceptibility testing when more than one organism is present in the source specimen, provides an example of an antimicrobial plate 112 prepared for this purpose. Of note, control wells containing only culture media are present on all plates 112. This allows for evaluation of pathogen load when no antimicrobial is present. Specimen Exposure to Antimicrobial Agents. The 1 mL aliquot of the specimen 100 previously mixed with culture media and incubated is obtained. Using optical density measurements as a guide, the specimen 100 is diluted to 0.5 McFarland. The specimen 100 is then placed into the previously prepared antimicrobial susceptibility testing plate 112. Each plate 112 is prepared for a single specimen 100 for a specified pathogen based on its detection. For example, if the specimen 100 has more than one pathogen detected that needs different antimicrobial concentrations for exposure due to different minimum inhibitory concentration breakpoints for one or more organisms, then more than one antimicrobial exposure plate 112 may be needed. […]
# [3] = A. baumannii isolate 1, Ct at control (average) 18.811
# [4] = A. baumannii isolate 1, at sensitive breakpoint
# [5] = A. baumannii isolate 2, Ct at control (average) 18.763
# [6] = A. baumannii isolate 2, at sensitive breakpoint
# [7] = A. baumannii isolate 3, Ct at control (average) 18.799
# [8] = A. baumannii isolate 3, at sensitive breakpoint
# [9] = A. baumannii isolate 4, Ct at control (average) 18.061
# [10] = A. baumannii isolate 4, at sensitive breakpoint
# [11] = A. baumannii isolate 5, Ct at control (average) 18.191
# [12] = A. baumannii isolate 5, at sensitive breakpoint
Compound,Traditional Culture Result [1],"Ct at Sensitive Breakpoint [2, 3]","Molecular Antimicrobial Susceptibility Result [2, 4]","Ct at Sensitive Breakpoint [2, 5]","Molecular Antimicrobial Susceptibility Result [2, 6]","Ct at Sensitive Breakpoint [2, 7]","Molecular Antimicrobial Susceptibility Result [2, 8]","Ct at Sensitive Breakpoint [2, 9]","Molecular Antimicrobial Susceptibility Result [2, 10]","Ct at Sensitive Breakpoint [2, 11]","Molecular Antimicrobial Susceptibility Result [2, 12]"
CC1(C)S[C@@H]2[C@H](NC(=O)[C@H](N)c3ccccc3)C(=O)N2[C@H]1C(=O)O [Ampicillin],Resistant,–,–,–,–,–,–,–,–,–,–
Cc1nnc(SCC2=C(C(=O)O)N3C(=O)[C@@H](NC(=O)Cn4cnnn4)[C@H]3SC2)s1 [Cefazolin],Resistant,–,–,–,–,–,–,–,–,–,–
CO/N=C(\C(=O)N[C@@H]1C(=O)N2C(C(=O)[O-])=C(C[N+]3(C)CCCC3)CS[C@H]12)c1csc(N)n1 [Cefepime],Sensitive,19.944,Resistant,19.194,Resistant,19.873,Sensitive (Antimicrobial wells with pathogen load detected below the control wells (typically >2 cycle thresholds later) may be reported as Sensitive),18.955,Resistant,18.489,Resistant
CO[C@@]1(NC(=O)Cc2cccs2)C(=O)N2C(C(=O)O)=C(COC(N)=O)CS[C@@H]21 [Cefoxitin],Resistant,–,–,–,–,–,–,–,–,–,–
CO/N=C(\C(=O)N[C@@H]1C(=O)N2C(C(=O)O)=C(CSc3nc(=O)c(=O)[nH]n3C)CS[C@H]12)c1csc(N)n1 [Ceftriaxone],Resistant,16.497,Resistant,19.075,Resistant,19.667,Resistant,18.774,Resistant,18.571,Resistant
O=C(O)c1cn(C2CC2)c2cc(N3CCNCC3)c(F)cc2c1=O [Ciprofloxacin],Sensitive,16.306,Resistant,19.471,Resistant,17.802,Resistant,18.101,Resistant,18.773,Resistant
C[C@H]1COc2c(N3CCN(C)CC3)c(F)cc3c(=O)c(C(=O)O)cn1c23 [Levofloxacin],–,17.268,Resistant,19.405,Resistant,18.253,Resistant,18.709,Resistant,19.052,Resistant
C[C@@H](O)[C@H]1C(=O)N2C(C(=O)O)=C(S[C@@H]3CN[C@H](C(=O)N(C)C)C3)[C@H](C)[C@H]12 [Meropenem],Sensitive,18.123,Resistant,19.761,Resistant,18.077,Resistant,17.553,Resistant,20.173,Resistant
Ampicillin/Sulbactam,–,–,–,–,–,–,–,19.447,Sensitive (Antimicrobial wells with pathogen load detected below the control wells (typically >2 cycle thresholds later) may be reported as Sensitive),19.682,Sensitive (Antimicrobial wells with pathogen load detected below the control wells (typically >2 cycle thresholds later) may be reported as Sensitive)
Gentamicin,Sensitive,–,–,–,–,–,–,19.380,Sensitive (Antimicrobial wells with pathogen load detected below the control wells (typically >2 cycle thresholds later) may be reported as Sensitive),19.399,Sensitive (Antimicrobial wells with pathogen load detected below the control wells (typically >2 cycle thresholds later) may be reported as Sensitive)
Piperacillin/Tazobactam,Sensitive,17.127,Resistant,19.691,Resistant,18.647,Resistant,16.207,Resistant,17.081,Resistant
Trimethoprim/Sulfamethoxazole [TMP/SMX],Sensitive,22.888,Sensitive (Antimicrobial wells with pathogen load detected below the control wells (typically >2 cycle thresholds later) may be reported as Sensitive),22.916,Sensitive (Antimicrobial wells with pathogen load detected below the control wells (typically >2 cycle thresholds later) may be reported as Sensitive),22.407,Sensitive (Antimicrobial wells with pathogen load detected below the control wells (typically >2 cycle thresholds later) may be reported as Sensitive),23.297,Sensitive (Antimicrobial wells with pathogen load detected below the control wells (typically >2 cycle thresholds later) may be reported as Sensitive),22.742,Sensitive (Antimicrobial wells with pathogen load detected below the control wells (typically >2 cycle thresholds later) may be reported as Sensitive)
